Results taken from paper PMC6545112 (Journal of medicinal chemistry, 2018).
“Also recorded” adds a separate entry of the source. Like-named read-outs stand apart in the source and are kept apart here. Each block holds one molecule with its values, some of them ahead of it.

Columns and labels:
RS4;11 cell line = experiment: cell growth inhibition, WST-8 assay, RS4; format: cell-based, human; details: for IC50: 4 days, WST-8 assay
[1] = target: MDM2 and p53 proteins in RS4;11 cells (Homo sapiens, UniProt Q00987); experiment: western blotting analysis of MDM2 and p53 proteins in RS4; format: cell-based
[2] = first efficacy experiment
MV4;11 AML cell line = experiment: cell growth inhibition, MV4; format: cell-based, human
[3] = test system: p53 target genes (MDM2, p21, PUMA) and TP53 in RS4;11 cells; experiment: qRT-PCR analysis of mRNA levels of p53 target genes and TP53 in RS4; format: cell-based, human; details: RS4;11, 6 h
RS4;11 xenograft tumors = experiment: antitumor activity in the RS4; format: in vivo, mice
[4] = test system: leukemia cell lines with mutated p53; experiment: cell growth inhibition, leukemia cell lines with mutated p53; format: cell-based, human; details: read-out: IC50 in leukemia cell lines with mutated p53
[5] = test system: MDM2, p53, p21 and PARP cleavage in RS4;11 xenograft tumors; details: single dose, mice; cited from earlier work
MOLM-13 = experiment: cell growth inhibition assay, MOLM-13; format: cell-based, human; details: read-out: IC50 (nM) in cell growth inhibition assay; MOLM-13, AML, p53 WT
KG-1 = experiment: cell growth inhibition assay, KG-1; format: cell-based, human; details: read-out: IC50 in cell growth inhibition assay; KG-1, AML, p53 MUT
MOLM-14 = experiment: cell growth inhibition assay, MOLM-14; format: cell-based, human; details: read-out: IC50 (nM) in cell growth inhibition assay; MOLM-14, AML, p53 WT
SIG-M5 = experiment: cell growth inhibition assay, SIG-M5; format: cell-based, human; details: read-out: IC50 (nM) in cell growth inhibition assay; SIG-M5, AML, p53 WT
Mono-Mac-6 = experiment: cell growth inhibition assay, Mono-Mac-6; format: cell-based, human; details: read-out: IC50 in cell growth inhibition assay; Mono-Mac-6, AML, p53 MUT
OCL-AML-5 = experiment: cell growth inhibition assay, OCL-AML-5; format: cell-based, human; details: read-out: IC50 (nM) in cell growth inhibition assay; OCL-AML-5, AML, p53 WT
[6] = test system: human acute leukemia cell lines with wild-type p53; experiment: cell growth inhibition, panel of acute leukemia cell lines with wild-type p53; format: cell-based
RS4;11 cells = experiment: flow cytometric analysis of apoptosis, Annexin V/PI double staining; format: cell-based, human; details: RS4;11, 24 h treatment
ML-2 = experiment: cell growth inhibition assay, ML-2; format: cell-based, human; details: read-out: IC50 (nM) in cell growth inhibition assay; ML-2, AML, p53 WT
[7] = test system: MDM2, p53, p21 and PARP cleavage in RS4;11 xenograft tumors; experiment: pharmacodynamic analysis in RS4; format: in vivo, mice; details: single dose 25 mg/kg, IV
[8] = target: MDM2 and p53 proteins in MV4;11 cell line (Homo sapiens, UniProt Q00987); experiment: western blotting analysis of MDM2 and p53 proteins in MV4; format: cell-based; details: MV4;11, 2 h, compared to RS4;11
[9] = read-out: IC50 (nM) in inhibition of cell growth in the RS4;11 cell line

Sequence of MDM2 and p53 proteins in RS4;11 cells (Q00987 whole entry): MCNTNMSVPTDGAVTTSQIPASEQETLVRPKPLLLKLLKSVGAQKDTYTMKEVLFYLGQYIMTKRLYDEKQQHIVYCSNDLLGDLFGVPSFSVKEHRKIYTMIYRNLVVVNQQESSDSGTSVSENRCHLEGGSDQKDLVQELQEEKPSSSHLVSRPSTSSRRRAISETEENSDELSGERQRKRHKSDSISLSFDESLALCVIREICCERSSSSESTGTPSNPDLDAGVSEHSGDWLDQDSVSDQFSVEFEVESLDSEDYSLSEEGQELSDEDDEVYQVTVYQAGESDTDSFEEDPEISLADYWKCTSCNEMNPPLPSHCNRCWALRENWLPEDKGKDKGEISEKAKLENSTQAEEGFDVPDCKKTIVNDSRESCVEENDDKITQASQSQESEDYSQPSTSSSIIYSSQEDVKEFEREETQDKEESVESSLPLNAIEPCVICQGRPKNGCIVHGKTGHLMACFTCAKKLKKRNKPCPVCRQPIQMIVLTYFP
Sequence of MDM2 and p53 proteins in MV4;11 cell line (Q00987 whole entry): as above

IC50 (RS4;11 cell line; Homo sapiens, RS4-11, 96 h, read-out: IC50 (nM) in inhibition of cell growth in the RS4;11 cell line): 4.5 nM
Molecule: O=C1CCC(N2C(=O)c3cccc(NCCOCCOCCOCCNC(=O)c4ccc(NC(=O)[C@@H]5NC6(CCCCC6)[C@@]6(C(=O)Nc7cc(Cl)ccc76)[C@H]5c5cccc(Cl)c5F)cc4)c3C2=O)C(=O)N1 (stereo partly shown) [Compound 10, (3’R,4’S,5’R)-6”-Chloro-4’-(3-Chloro-2-fluorophenyl)-N-(4-((2-(2-(2-(2-((2-(2,6-dioxopiperidin-3-yl)-1,3-dioxoisoindolin-4-yl)amino)ethoxy)ethoxy)ethoxy)-ethyl)carbamoyl)phenyl)-2”-oxodispiro[cyclohexane-1,2’-pyrrolidine-3’,3”-indoline]-5’-carboxamide]
effect on MDM2 and p53 protein levels (western blotting) ([1]; RS4;11 cells, 2 h treatment): effectively induce degradation of MDM2 and accumulation of p53

effect on MDM2 and p53 protein levels (western blotting) ([1]; RS4;11 cells, 2 h treatment): fails to induce any MDM2 degradation
Molecule: O=C1CCC(N2Cc3c(C#CCCCNC(=O)c4ccc(NC(=O)[C@H]5NC6(CCCCC6)[C@]6(C(=O)Nc7cc(Cl)ccc76)[C@@H]5c5cccc(Cl)c5F)cc4)cccc3C2=O)C(=O)N1 (stereo partly shown) [Compound 21, (3’S,4’R,5’S)-6”-Chloro-4’-(3-chloro-2-fluorophenyl)-N-(4-((5-(2-(2,6-dioxopiperidin-3-yl)-1-oxoisoindolin-4-yl)pent-4-yn-1-yl)carbamoyl)phenyl)-2”-oxodispiro[cyclohexane-1,2’-pyrrolidine-3’,3”-indoline]-5’-carboxamide]
activity in inhibition of cell growth (in words) (RS4;11 cell line; RS4;11): minimal activity

Molecule: CN1C(=O)CCC(N2Cc3c(C#CCCCNC(=O)c4ccc(NC(=O)[C@@H]5NC6(CCCCC6)[C@@]6(C(=O)Nc7cc(Cl)ccc76)[C@H]5c5cccc(Cl)c5F)cc4)cccc3C2=O)C1=O (stereo partly shown) [Compound 22, (3’R,4’S,5’R)-6”-Chloro-4’-(3-chloro-2-fluorophenyl)-N-(4-((5-(2-(1-methyl-2,6-dioxopiperidin-3-yl)-1-oxoisoindolin-4-yl)pent-4-yn-1-yl)carbamoyl)phenyl)-2”-oxodispiro[cyclohexane-1,2’-pyrrolidine-3’,3”-indoline]-5’-carboxamide]
times less potent than MD-224 in inhibition of cell growth (RS4;11 cell line; RS4;11): > 100 times
effect on MDM2 and p53 protein levels (western blotting) ([1]; RS4;11 cells, 2 h treatment): completely inactive in inducing MDM2 degradation

Molecule: O=C(O)c1ccc(NC(=O)[C@@H]2NC3(CCCCC3)[C@@]3(C(=O)Nc4cc(Cl)ccc43)[C@H]2c2cccc(Cl)c2F)cc1 [MI-1061, reference compound]
effect of pretreatment with lenalidomide on cell growth inhibitory activity (RS4;11 cell line; RS4;11, 4 days, WST-8): no significant effect
weight loss or other signs of toxicity [2]: no significant weight loss or other signs of toxicity
effect of pretreatment with lenalidomide on cell growth inhibitory activity (MV4;11 AML cell line): has no effect on the activity
transcriptional upregulation of p53 target genes (MDM2, p21, PUMA) [3]: effectively induces marked transcriptional upregulation of p53 target genes
antitumor activity (RS4;11 xenograft tumors; 100 mg/kg, oral, daily dosing (5 days a week)): effectively retards tumor growth over the control
effect on MDM2 and p53 protein levels (western blotting) ([1]; RS4;11 cells, 2 h treatment): inducing accumulation of both MDM2 and p53; also recorded: induces accumulation of both MDM2 and p53 proteins
IC50 ([4]; Homo sapiens): > 10000 nM

Molecule: CC(C)(C)C[C@@H]1N[C@@H](C(=O)N[C@H]2CC[C@H](O)CC2)[C@H](c2cccc(Cl)c2F)[C@]12C(=O)Nc1cc(Cl)ccc12 [MI-77301]
duration of p53 protein upregulation in tumor tissue [5]: only a few hours

Molecule: (3’R,4’S,5’R)-6”-Chloro-4’-(3-Chloro-2-fluorophenyl)-N-(4-((5-(2-(2,6-dioxopiperidin-3-yl)-1,3-dioxoisoindolin-4-yl)pent-4-yn-1-yl)carbamoyl)phenyl)-2”-oxodispiro[cyclohexane-1,2’-pyrrolidine-3’,3”-indoline]-5’-carboxamide [Compound 14]
times more potent than MD-222 in inhibition of cell growth (RS4;11 cell line; RS4;11): 2 times
IC50 (RS4;11 cell line; [9]): 1.5 ± 0.5 nM
IC50 (MOLM-13): 7.3 ± 3 nM
IC50 (KG-1): > 10000 nM
IC50 (MOLM-14): 10.5 ± 3 nM
IC50 (SIG-M5): 19.8 ± 11 nM
IC50 (Mono-Mac-6): > 10000 nM
IC50 (OCL-AML-5): 33.1 ± 18 nM
effect on TP53 mRNA [3]: have no effect on TP53
times more potent than MI-1061 in transcriptional upregulation of p53 target genes [3]: > 10 times
antitumor activity (RS4;11 xenograft tumors; 25 mg/kg, daily, 5 days a week for 2 weeks): complete tumor regression
antitumor activity (RS4;11 xenograft tumors; 50 mg/kg, every other day for three weeks): complete tumor regression
antitumor activity (RS4;11 xenograft tumors; 50 mg/kg, weekly dosing): complete tumor growth inhibition
times more potent than MI-1061 in cell growth inhibition [6]: > 10 times
times more potent than MI-1061 in inducing apoptosis (RS4;11 cells): > 10 times
IC50 (ML-2): 4.4 ± 2 nM
IC50 [4]: > 10000 nM
PARP cleavage in tumor tissue [7]: evident at the 24 h time point
persistence of MDM2 protein depletion in tumor tissue ([7]; depleted at 3 h): > 24 h
duration of p53 and p21 upregulation in tumor tissue ([7]; strong at 3 h): > 24 h

Molecule: (3’R,4’S,5’R)-6”-Chloro-4’-(3-Chloro-2-fluorophenyl)-N-(4-((5-(2-(2,6-dioxopiperidin-3-yl)-1-oxoisoindolin-4-yl)pentyl)carbamoyl)phenyl)-2”-oxodispiro[cyclohexane-1,2’-pyrrolidine-3’,3”-indoline]-5’-carboxamide [Compound 13]
times more potent than 1 in inhibition of cell growth (RS4;11 cell line; RS4;11): 4 times
IC50 (RS4;11 cell line; [9]): 2.8 ± 1.1 nM
IC50 (MOLM-13): 11.7 ± 4 nM
IC50 (KG-1): > 10000 nM
effect on MDM2 and p53 protein levels (western blotting) [8]: similarly potent and effective in inducing depletion of MDM2 protein and accumulation of p53 protein
IC50 (MOLM-14): 22.5 ± 8 nM
IC50 (SIG-M5): 29.9 ± 16 nM
IC50 (Mono-Mac-6): > 10000 nM
IC50 (OCL-AML-5): 58.2 ± 29 nM
effect on TP53 mRNA [3]: have no effect on TP53
times more potent than MI-1061 in transcriptional upregulation of p53 target genes [3]: > 10 times
concentration that reduces/depletes MDM2 protein ([1]; RS4;11 / leukemia cells, 2 h treatment): ≤ 1 nM
IC50 (ML-2): 11.5 ± 6 nM

Molecule: (3’R,4’S,5’R)-6”-Chloro-4’-(3-Chloro-2-fluorophenyl)-N-(4-((5-(2-(2,6-dioxopiperidin-3-yl)-1-oxoisoindolin-5-yl)pent-4-yn-1-yl)carbamoyl)phenyl)-2”-oxodispiro[cyclohexane-1,2’-pyrrolidine-3’,3”-indoline]-5’-carboxamide [Compound 16]
times less potent than MD-224 in inhibition of cell growth (RS4;11 cell line; RS4;11): 3 times
IC50 (RS4;11 cell line; [9]): 5 ± 2 nM
effect on MDM2 and p53 protein levels (western blotting) ([1]; RS4;11 cells, 2 h treatment): effectively induce degradation of MDM2 and accumulation of p53

Molecule: (3’R,4’S,5’R)-6”-Chloro-4’-(3-Chloro-2-fluorophenyl)-N-(4-((5-(2-(2,6-dioxopiperidin-3-yl)-3-oxoisoindolin-5-yl)pent-4-yn-1-yl)carbamoyl)phenyl)-2”-oxodispiro[cyclohexane-1,2’-pyrrolidine-3’,3”-indoline]-5’-carboxamide [Compound 17]
times less potent than MD-224 in inhibition of cell growth (RS4;11 cell line; RS4;11): 3 times
IC50 (RS4;11 cell line; [9]): 5 ± 3 nM
effect on MDM2 and p53 protein levels (western blotting) ([1]; RS4;11 cells, 2 h treatment): effectively induce degradation of MDM2 and accumulation of p53

Molecule: (3’R,4’S,5’R)-6”-Chloro-4’-(3-Chloro-2-fluorophenyl)-N-(4-(((S)-14-((2S,4R)-4-hydroxy-2-(((S)-1-(4-(4-methylthiazol-5-yl)phenyl)ethyl)carbamoyl)pyrrolidine-1-carbonyl)-15,15-dimethyl-12-oxo-3,6,9-trioxa-13-azahexadecyl)carbamoyl)phenyl)-2”-oxodispiro[cyclohexane-1,2’-pyrrolidine-3’,3”-indoline]-5’-carboxamide [Compound 20]
IC50 (RS4;11 cell line; [9]): 340 ± 20 nM
IC50 (RS4;11 cell line; read-out: IC50 in the cell growth assay in the RS4;11 cell line): 300 nM
effect on MDM2 protein level (western blotting) ([1]; RS4;11 cells, 12 h treatment): fails to reduce the level of MDM2 protein

Molecule: (3’R,4’S,5’R)-6”-Chloro-4’-(3-chloro-2-fluorophenyl)-N-(4-((2-(2,6-dioxopiperidin-3-yl)-1-oxoisoindolin-4-yl)carbamoyl)phenyl)-2”-oxodispiro[cyclohexane-1,2’-pyrrolidine-3’,3”-indoline]-5’-carboxamide [Compound 3]
IC50 (RS4;11 cell line; [9]): 68.4 ± 36 nM
effect on MDM2 and p53 protein levels (western blotting) ([1]; RS4;11 cells, 2 h treatment): fails to induce MDM2 degradation
